Test results taken from PMC10148497, “Evaluation of Bacillus aryabhattai B8W22 peroxidase for phenol removal in waste water effluents” (BMC Microbiology, 2023).

System: T1, peroxidase from Bacillus aryabhattai B8W22
T1 construct: gene extracellular peroxidase; 66 kDa on SDS-PAGE
Assay: peroxidase activity assay, Lineweaver-Burk plot
Type: biochemical, Priestia aryabhattai
Details: co-substrate, pH and temperature of the kinetic assay not given

Km: 6.942 mg/mL
Structure (SMILES): COc1ccccc1O [guaiacol]
